Laboratory results from patent US20090004121A1, “Combination of picotamide with nafronyl” (priority 2007, published 2009).
Where a name gives a salt, the structure may show the parent alone. Read-outs that look alike come from different tables or passages of the source.

How the values were obtained:
Assay type in all cases: cell-based
Thoracic aortic rings = assay: Contracting effect on rat aortic rings (organ bath); settings: mean ±S.E.M.
Experimental: Thoracic aortic rings obtained from male Wistar rats are carefully cleaned of connective tissue. The aortic rings are suspended in the isolated muscle bath (20 mL). Each segment is suspended under a tension of 1 g in Krebs buffer (NaCl 118 mM, KCl 5.4 mM, CaCl2 2.5 mM, MgCl2.6H2O 1.5 mM, NaHCO3 25 mM, NaH2PO4 1.2 mM, glucose 10 mM; pH 7.4) which was bubbled with O2 95%/CO2 5% at 37° C. in 20 mL organ baths (EMKA Technologies, Paris, France). The muscle tension of aortic rings is isometrically recorded with a force-displacement transducer IT1 (EMKA Technologies, Paris, France). The buffer is renewed at 15 min intervals during the equilibrium period (40 min) before exposing the rings to the TXA2-mimetic U-46619 (20 nM), 8-iso-prostaglandin F2α (1 μM) or serotonin (5-hydroxy-tryptamine, 5-HT, 2 μM). When a stable tension is obtained (15 min), the compound of interest is added at a cumulative increasing concentration to the bath until the tension returned to the baseline value. Tension is recorded with a specific data acquisition program (IOX 1.445, EMKA Technologies, Paris, France). The EC50 value of each drug is assessed for at least 6 concentration-response curves obtained from separate preparations. EC50 is expressed as the concentration which reduces 50% of the tension induced by the contracting agent. The results are expressed as mean ±S.E.M. Nafronyl oxalate was obtained from Sigma-Aldrich; picotamide monohydrate was obtained from the European Directory of Quality of Medicines. […] These values are in line with results obtained in previous studies (S. W. Watts and J. M. Thompson, J Pharmacol Exp Ther 309:165-172, 2004; M. Lohn et al., FASEB J 16:1057-63, 2002).

[1] = test system: Thoracic aortic rings precontracted with serotonin; assay: Relaxation of rat aortic rings using serotonin 2 μM as contracting agent; settings: for EC50: Rattus norvegicus, read-out: EC50 relaxing effect
Experimental: (§1) Thoracic aortic rings obtained from male Wistar rats are carefully cleaned of connective tissue. The aortic rings are suspended in the isolated muscle bath (20 mL). Each segment is suspended under a tension of 1 g in Krebs buffer (NaCl 118 mM, KCl 5.4 mM, CaCl2 2.5 mM, MgCl2.6H2O 1.5 mM, NaHCO3 25 mM, NaH2PO4 1.2 mM, glucose 10 mM; pH 7.4) which was bubbled with O2 95%/CO2 5% at 37° C. in 20 mL organ baths (EMKA Technologies, Paris, France). The muscle tension of aortic rings is isometrically recorded with a force-displacement transducer IT1 (EMKA Technologies, Paris, France). The buffer is renewed at 15 min intervals during the equilibrium period (40 min) before exposing the rings to the TXA2-mimetic U-46619 (20 nM), 8-iso-prostaglandin F2α (1 μM) or serotonin (5-hydroxy-tryptamine, 5-HT, 2 μM). When a stable tension is obtained (15 min), the compound of interest is added at a cumulative increasing concentration to the bath until the tension returned to the baseline value. Tension is recorded with a specific data acquisition program (IOX 1.445, EMKA Technologies, Paris, France). The EC50 value of each drug is assessed for at least 6 concentration-response curves obtained from separate preparations. EC50 is expressed as the concentration which reduces 50% of the tension induced by the contracting agent. The results are expressed as mean ±S.E.M. Nafronyl oxalate was obtained from Sigma-Aldrich; picotamide monohydrate was obtained from the European Directory of Quality of Medicines. Nafronyl oxalate was confirmed to be a potent serotonin antagonist with an EC50 1.54·10^−8 M for its relaxing effect.

[2] = test system: rat aorta rings pretreated with 8-iso-prostaglandin F2α; assay: Relaxation of rat aortic rings using 8-iso-prostaglandin F2α 1 μM as contracting agent
Experimental: as §1, with “Relaxation experiments on aortas precontracted” for “Nafronyl oxalate was confirmed to be a potent serotonin antagonist”, “8-iso-prostaglandin F2α 1 μM were done with picotamide monohydrate alone in increasing concentrations of 10^−8 M, 10^−7 M, 10^−6 M, 10^−5 M, 10^−4 M, as well as with the same concentrations of picotamide monohydrate in the presence of 1 μM nafronyl.” for “an EC50 1.54·10^−8 M for its relaxing effect.”

Which EC50 (Thoracic aortic rings) does the source give for CCCCC[C@H](O)/C=C/[C@@H]1[C@H](C/C=C\CCCC(=O)O)[C@@H](O)C[C@H]1O [8-iso-PGF2α, 8-iso-prostaglandin F2α] here?
Its EC50 is 1000 ± 100 nM.

CCN(CC)CCOC(=O)C(Cc1cccc2ccccc12)CC1CCCO1 (stereo not drawn) [Nafronyl oxalate, 2-diethylaminoethyl 2-(naphthalen-1-ylmethyl)-3-(oxolan-2-yl)propanoate] was tested. Which EC50 ([1]; drug alone) did it give?
The EC50 was 15.4 nM.

And the EC50 ([1]; in the presence of 10^−6 M picotamide)?
Its EC50 is 13.3 nM.

And the EC50 ([2]; drug alone)?
Its EC50 is 3880 nM.

For COc1ccc(C(=O)NCc2cccnc2)cc1C(=O)NCc1cccnc1 [Picotamide monohydrate, N,N′-bis-(3-picolyl)-4-methoxy-isophthalamide], which tension reduction ([1]; 10^−5 M picotamide) is on record?
The tension reduction was 30%.

And the EC50 ([2]; drug alone)?
The EC50 was 16400 nM.

What about the EC50 ([2]; together with 10^−6 M nafronyl oxalate) of the same compound?
The EC50 was 2340 nM.

Which EC50 (Thoracic aortic rings) does the source give for CCCCC[C@H](O)/C=C/[C@@H]1[C@@H](C/C=C\CCCC(=O)O)[C@H]2CO[C@@H]1C2 [U-46619] here?
Its EC50 is 12.2 ± 2.68 nM.

NCCc1c[nH]c2ccc(O)cc12 [serotonin, 5-hydroxy-tryptamine] was tested. Which EC50 (Thoracic aortic rings) did it give?
Its EC50 is 980 ± 90 nM.
